Values of other authors as cited in patent US12527793B2, “Pharmaceutical compositions” (Shenzhen Pharmacin Co., Ltd., priority 2020, dated 2026).
Read-outs that look alike come from different tables or passages of the source.

Columns and labels:
[1] = background statement
[2] = source footnote 1: Pallicer et al., ADMET & DMPK 2(2) (2014) 107-114
[3] = source footnote 5: experimental values listed on www.drugbank.ca

| Compound | Experimental log P [2] | also measured |
| --- | --- | --- |
| O=c1cc(-c2ccc(O)cc2)oc2cc(O)cc(O)c12 [Apigenin] | 3.02^1 |  |
| CN(C)CCC(c1ccc(Br)cc1)c1ccccn1 (stereo not shown) [Brompheniramine] | 2.88^1 |  |
| CCCCN1CCCCC1C(=O)Nc1c(C)cccc1C (stereo not shown) [Bupivacaine] | 3.41^1 |  |
| Cc1ccc(-c2cc(C(F)(F)F)nn2-c2ccc(S(N)(=O)=O)cc2)cc1 [Celecoxib] | 3.91^1 |  |
| CN(C)CCC(c1ccc(Cl)cc1)c1ccccn1 (stereo not shown) [Chlorphenamine] | 3.17^1 |  |
| CN(C)CCCN1c2ccccc2Sc2ccc(Cl)cc21 [Chlorpromazine] | 5.27^1 |  |
| O=c1cc(-c2ccccc2)oc2cc(O)cc(O)c12 [Chrysin] | 3.52^1 |  |
| C=C[C@H]1CN2CC[C@H]1C[C@H]2[C@H](O)c1ccnc2ccccc12 [Cinchonidine] | 2.6^1 |  |
| CC(C)/N=c1\cc2n(-c3ccc(Cl)cc3)c3ccccc3nc-2cc1Nc1ccc(Cl)cc1 [Clofazimine] | 6.3^1 |  |
| CC(C)(Oc1ccc(Cl)cc1)C(=O)O [Clofibric acid] | 2.57^1 |  |
| COC(=O)[C@H](c1ccccc1Cl)N1CCc2sccc2C1 [Clopidogrel] | 4.52^1 |  |
| CCc1cc2c(s1)N(C)C(=O)CN=C2c1ccccc1Cl [Clotiazepam] | 3.49^1 |  |
| COc1ccc([C@@H]2Sc3ccccc3N(CCN(C)C)C(=O)[C@@H]2OC(C)=O)cc1 [Diltiazem] | 2.84^1 |  |
| CNCC[C@H](Oc1cccc2ccccc12)c1cccs1 [Duloxetine] | 4.54^1 |  |
| O=C(O)CCC(=O)c1ccc(-c2ccccc2)cc1 [Fenbufen] | 3.2^1 |  |
| O=C(O)c1ccccc1Nc1cccc(C(F)(F)F)c1 [Flufenamic acid] | 5.19^1 |  |
| CNCCC(Oc1ccc(C(F)(F)F)cc1)c1ccccc1 (stereo not shown) [Fluoxetine] | 4.42^1 |  |
| CCN(CC)CCN1C(=O)CN=C(c2ccccc2F)c2cc(Cl)ccc21 [Flurazepam] | 3.94^1 |  |
| CC(C(=O)O)c1ccc(-c2ccccc2)c(F)c1 (stereo not shown) [Flurbiprofen] | 3.84^1 |  |
| CCC1=C(C)CN(C(=O)NCCc2ccc(S(=O)(=O)NC(=O)N[C@H]3CC[C@H](C)CC3)cc2)C1=O [Glimepiride] | 3.97^1 |  |

| Compound | Experimental log P [2] | also measured |
| --- | --- | --- |
| O=C(CCCN1CCC(O)(c2ccc(Cl)cc2)CC1)c1ccc(F)cc1 [Haloperidol] | 3.82^1 |  |
| COc1ccc([C@@H]2CC(=O)c3c(O)cc(O)cc3O2)cc1O [Hesperetin] | 2.60^1 |  |
| C=CC(=O)N1CCC[C@@H](n2nc(-c3ccc(Oc4ccccc4)cc3)c3c(N)ncnc32)C1 [Ibrutinib] |  | Experimental log P [3]: 3.97 ^5 |
| COc1ccc2c(c1)c(CC(=O)O)c(C)n2C(=O)c1ccc(Cl)cc1 [Indometacin] | 4.1^1 |  |
| O=C1C[C@@H](c2ccc(O)cc2)Oc2cc(O)cc(O)c21 [Naringenin] | 2.52^1 |  |
| Cc1cn(-c2cc(NC(=O)c3ccc(C)c(Nc4nccc(-c5cccnc5)n4)c3)cc(C(F)(F)F)c2)cn1 [Nilotinib, 4-methyl-N-[3-(4-methyl-1H-imidazol-1-yl)-5-(trifluoromethyl)phenyl]-3-{[4-(pyridin-3-yl)pyrimidin-2-yl]amino}benzamide] |  | Solubility in water [1]: practically insoluble |
| OCCOCCN1CCN(C2=Nc3ccccc3Sc3ccccc32)CC1 [Quetiapine] | 3.13^1 |  |
| C=C[C@H]1C[N@@]2CC[C@H]1C[C@H]2[C@H](O)c1ccnc2ccc(OC)cc12 [Quinine] | 2.64^1 |  |
| CN(CCOc1ccc(CC2SC(=O)NC2=O)cc1)c1ccccn1 (stereo not shown) [Rosiglitazone] | 3.1^1 |  |
| CN[C@H]1CC[C@@H](c2ccc(Cl)c(Cl)c2)c2ccccc21 [Sertraline] | 5.17^1 |  |
| COc1cccc(C2(O)CCCCC2CN(C)C)c1 (stereo not shown) [Tramadol] | 2.7^1 |  |
| O=c1n(CCCN2CCN(c3cccc(Cl)c3)CC2)nc2ccccn12 [Trazodone] | 2.82^1 |  |
| COc1ccc(C(CN(C)C)C2(O)CCCCC2)cc1 (stereo not shown) [Venlafaxine] | 3.05^1 |  |
| C[C@@H](Oc1cc(-c2cnn(C3CCNCC3)c2)cnc1N)c1c(Cl)ccc(F)c1Cl [crizotinib] |  | Experimental log P [3]: 1.83 ^5 |
| Cc1nc(Nc2ncc(C(=O)Nc3c(C)cccc3Cl)s2)cc(N2CCN(CCO)CC2)n1 [dasatinib] |  | Experimental log P [3]: 1.8 ^5 |
| CS(=O)(=O)CCNCc1ccc(-c2ccc3ncnc(Nc4ccc(OCc5cccc(F)c5)c(Cl)c4)c3c2)o1 [lapatinib] |  | Experimental log P [3]: 5.4 ^5 |
| CO[C@@H]1[C@H](N(C)C(=O)c2ccccc2)C[C@H]2O[C@]1(C)n1c3ccccc3c3c4c(c5c6ccccc6n2c5c31)C(=O)NC4 [midostaurin] |  | Experimental log P [3]: 5.89 ^5 |
| COC(=O)c1ccc2c(c1)NC(=O)/C2=C(\Nc1ccc(N(C)C(=O)CN2CCN(C)CC2)cc1)c1ccccc1 [nintedanib] |  | Experimental log P [3]: 3.0 ^5 |
| CNC(=O)c1cc(Oc2ccc(NC(=O)Nc3ccc(Cl)c(C(F)(F)F)c3)cc2)ccn1 [sorafenib] |  | Experimental log P [3]: 3.8 ^5 |
| CCCS(=O)(=O)Nc1ccc(F)c(C(=O)c2c[nH]c3ncc(-c4ccc(Cl)cc4)cc23)c1F [vemurafenib] |  | Experimental log P [3]: 5.1 ^5 |
